From US12285465B2, “Combined treatment of primary central nervous system lymphoma” (FONDAZIONE CENTRO SAN RAFFAELE, priority 2018, dated 2025)
Entries after “also recorded” stand apart in the source; their conditions may differ.

Tests used:
[1] = system: BBB permeability in lymphomatous lesions and perilesional area; experiment: BBB permeability assessed by DCE-MRI (Ktrans); assay type: in vivo, human; details: tumoral/peritumoral areas
Method: Variations induced by NGR-hTNF in the BBB permeability at the level of the lymphomatous lesions, areas surrounding the tumor (perilesional area) and in the normal-appearing brain parenchyma were assessed by DCE-MRI. DCE acquisition followed a standard protocol^28 that included also conventional T1, T2, Flair, DWI and Dynamic Susceptibility Contrast Perfusion (DSC) sequences. […] In cases of multiple lesions, the largest one was considered. Post-processing of DCE-MRI was performed using Olea software (La Ciotat, France); all dynamic images were corrected for motion artifacts and co-registered to a volumetric post-contrast T1 sequences. Results were expressed as Ktrans values normalized using contralateral white matter. Ktrans obtained after the 2nd course (measured after NGR-hTNF infusion) were compared with those obtained after the 1st course (without NGR-hTNF) to establish the effect of TNF on BBB permeabilization. Statistically significance was assessed by Wilcoxon matched pairs test.

[2] = INGRID phase II trial: toxicity graded by NCI-NCIC CTC version 3.0; assay type: in vivo; details: of 132 delivered courses; fever, chills, arterial hypertension
Method: Treatment side effects were assessed separately for each chemotherapy course and graded according to the NCI-NCIC CTC version 3·0^19. The worst toxicity per organ, per patient was considered. Periodic specialist controls, ECG, troponin levels determination, and echocardiography were performed before every treatment course to exclude cardiac toxicity. The impact of treatment on cognitive functions was not assessed by ad hoc tests.
Duration of response, PFS, OS, and tolerability were the secondary endpoints. Duration of response was defined as the time from the first assessment that documents the response to the date of relapse, date of death from any cause or date of the last visit of follow-up. PFS was defined as the interval between the time of entry onto trial and failure (relapsing or progressive disease), death from any cause or date of the last visit of follow-up. OS was defined as the time from entry onto trial until death from any cause or date of the last visit of follow-up. Tolerability was defined by of grade 3-4 AEs according to NCI CTCAE^19.

With “NGR-hTNF: genetically engineered protein consisting of CNGRCG fused to the N-terminus of human tumor necrosis factor alpha (SEQ ID No. 1), expressed in E. coli” the “vascular permeability (DCE-MRI, SPECT)” value [1] was “selectively increased vascular permeability in tumoral/peritumoral areas; also recorded: vascular permeability was increased” and the “TNF Infusion reaction Grade 1-2 (number of courses)” value [2] was “nine”.
